Experimental data as given in BindingDB's records for doi:10.7270/Q2NS0S8J (University of Pittsburgh, 2007).

What follows are molecules tested against T1, M-phase inducer phosphatase 2 (Homo sapiens, UniProt P30305) (assay: Cdc25B inhibition under reducing thiol conditions, late-stage follow-up, Cdc25B inhibitor project, biochemical, beta-mercaptoethanol present, catalytic domain, IC50 (AID 670)).
T1 sequence (P30305 whole entry): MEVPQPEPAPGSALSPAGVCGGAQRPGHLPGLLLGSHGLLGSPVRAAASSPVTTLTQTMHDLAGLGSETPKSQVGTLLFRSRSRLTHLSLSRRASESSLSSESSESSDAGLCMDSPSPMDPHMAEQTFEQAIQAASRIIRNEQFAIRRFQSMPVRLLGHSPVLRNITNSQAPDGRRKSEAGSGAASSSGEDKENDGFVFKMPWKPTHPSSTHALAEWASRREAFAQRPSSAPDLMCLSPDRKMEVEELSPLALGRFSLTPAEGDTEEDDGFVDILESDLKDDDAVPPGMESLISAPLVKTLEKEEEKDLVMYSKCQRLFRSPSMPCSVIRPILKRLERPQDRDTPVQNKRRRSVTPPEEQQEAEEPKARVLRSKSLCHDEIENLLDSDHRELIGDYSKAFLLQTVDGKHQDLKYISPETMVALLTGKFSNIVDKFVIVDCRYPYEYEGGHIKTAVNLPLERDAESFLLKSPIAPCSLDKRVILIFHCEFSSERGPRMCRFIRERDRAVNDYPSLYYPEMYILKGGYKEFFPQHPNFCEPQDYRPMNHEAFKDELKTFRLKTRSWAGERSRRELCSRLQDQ

| IC50 | SMILES |
| --- | --- |
| > 50 µM | COc1ccc2noc3c2c1C(=O)c1ccccc1-3 [MLS000106874] |
| 33.1 µM | N#Cc1c(N)sc(=S)c2c1CCN(Cc1ccccc1)C2 [3-Amino-7-benzyl-1-thioxo-5,6,7,8-tetrahydro-1H-thiopyrano[3,4-c]pyridine-4-carbonitrile] |
| > 50 µM | O=C1Cc2ccccc2C(=O)N1CCc1ccccc1 [2-(2-phenylethyl)-4H-isoquinoline-1,3-dione] |
| > 50 µM | CCOC(=O)C(C(=O)OCC)c1cc(Br)c2noc3c2c1C(=O)c1ccccc1-3 [MLS000038842] |
| 5.2 µM | Cc1ccc2c(c1)C1C=CCC1C(C(=O)O)N2 (stereo not given) [MLS-0067149.0001] |
| > 50 µM | CCOc1ccc2noc3c2c1C(=O)c1ccccc1-3 [MLS000106837] |
| > 50 µM | Cc1ccccc1Nc1cc2ccccc2c(O)n1 [3-[(2-methylphenyl)amino]-2H-isoquinolin-1-one] |
| > 50 µM | N#Cc1c(N2CCCC2)nc(N)c2c(N)nc(N3CCCC3)cc12 [SMR000061605] |
| > 50 µM | [O-]/[N+](=C\c1ccncc1)c1ccccc1 |
| > 50 µM | Cc1c(N=c2c(=O)c3ccccc3c2=O)c(=O)n(-c2ccccc2)n1C [MLS000105950] |
| 19.2 µM | O=C(Nc1ccc2nc(-c3ccco3)c(-c3ccco3)nc2c1)N1CCCCCC1 |
| > 50 µM | O=C(NC1(O)C(=O)c2ccccc2C1=O)c1ccccc1 [N-(2-hydroxy-1,3-dioxo-2-indenyl)benzamide] |
| > 50 µM | Nc1cccc2cnccc12 [isoquinolin-5-amine] |
| 4.2 µM | Cc1ccc2c(c1C)NC(C(=O)O)C1CC=CC21 (stereo not given) |
| > 50 µM | Oc1nc(Nc2ccccc2)cc2ccccc12 [MLS000043701] |
| 1.78 µM | COc1ccc(Br)cc1C=c1sc2nc(-c3ccco3)nn2c1=O [5-[(5-bromanyl-2-methoxy-phenyl)methylidene]-2-(furan-2-yl)-[1,3]thiazolo[3,2-b][1,2,4]triazol-6-one] |
| 10.3 µM | c1ccc(CSc2nnc(-c3ccco3)c(-c3ccco3)n2)cc1 [MLS-0029114.0001] |
| 6.35 µM | COc1cccc2c(C)c(C(=O)O)[nH]c12 |
| 7.42 µM | O=C(O)C1Nc2c(O)cccc2C2C=CCC12 (stereo not given) |
| > 50 µM | [O-]/[N+](=C\c1ccc(OC(F)F)cc1)c1ccccc1 [1-[4-(difluoromethoxy)phenyl]-N-phenylmethanimine oxide] |

| SMILES | IC50 |
| --- | --- |
| Cn1ncnc2c(=O)n(C)c(=O)nc1-2 | 32.4 µM |
| O=C1C=Cc2ccccc2C1=O [1,2-dihydronaphthalene-1,2-dione] | 20.4 µM |
| CCn1nc(-c2ccccc2)nc2c(=O)n(C)c(=O)nc1-2 [1-Ethyl-6-methyl-3-phenyl-1H-pyrimido[5,4-e][1,2,4]triazine-5,7-dione] | > 50 µM |
| CC(=O)Nc1cc(OC(C)=O)c2nonc2c1OC(C)=O [Acetic acid 7-acetoxy-5-acetylamino-benzo[1,2,5]oxadiazol-4-yl ester] | > 50 µM |
| CCn1nc(-c2cccs2)nc2c(=O)n(C)c(=O)nc1-2 [1-ethyl-6-methyl-3-thiophen-2-yl-pyrimido[5,4-e][1,2,4]triazine-5,7-dione] | 41.8 µM |
